Experimental data taken from ChEMBL document CHEMBL4184334, “From Cancer to Pain Target by Automated Selectivity Inversion of a Clinical Candidate” (J Med Chem, 2018).
Activity calls are given as the source filed them. No cut-off for these calls is given here.

Key:
[1] = target: Proto-oncogene tyrosine-protein kinase receptor Ret (Homo sapiens) (UniProt P07949); test: Inhibition of DNA-tagged human partial length RET expressed in bacterial expression system at 100 nM by qPCR method
Aurora kinase A = target: T1, Aurora kinase A (Homo sapiens, UniProt O14965); test: Inhibition of DNA-tagged human partial length AURKA expressed in mammalian expression system at 100 nM by qPCR method; settings: 0.1 µM
T1 sequence (O14965 whole entry): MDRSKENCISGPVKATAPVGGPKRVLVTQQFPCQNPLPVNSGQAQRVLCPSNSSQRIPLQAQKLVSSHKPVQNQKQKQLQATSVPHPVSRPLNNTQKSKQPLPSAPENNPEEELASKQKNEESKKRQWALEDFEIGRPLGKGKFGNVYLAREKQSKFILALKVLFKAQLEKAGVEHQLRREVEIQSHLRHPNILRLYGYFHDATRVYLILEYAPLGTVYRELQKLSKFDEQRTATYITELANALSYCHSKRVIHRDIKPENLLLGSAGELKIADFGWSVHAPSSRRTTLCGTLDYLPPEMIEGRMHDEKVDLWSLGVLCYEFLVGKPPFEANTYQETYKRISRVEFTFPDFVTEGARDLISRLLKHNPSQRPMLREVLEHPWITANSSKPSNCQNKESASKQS

[2] = target: Tyrosine-protein kinase JAK2 (Homo sapiens, UniProt O60674); test: Inhibition of DNA-tagged human partial length JAK2 JH1 domain-catalytic expressed in mammalian expression system at 100 nM by qPCR method; settings: 0.1 µM
[3] = target: BDNF/NT-3 growth factors receptor (Homo sapiens) (UniProt Q16620); test: Inhibition of DNA-tagged human partial length TrkB expressed in mammalian expression system at 100 nM by qPCR method
[4] = target: NT-3 growth factor receptor (Homo sapiens) (UniProt Q16288); test: Inhibition of DNA-tagged human partial length TrkC expressed in mammalian expression system at 100 nM by qPCR method
[5] = target: Mast/stem cell growth factor receptor Kit (Homo sapiens) (UniProt P10721); test: Inhibition of DNA-tagged human partial length KIT expressed in bacterial expression system at 100 nM by qPCR method
Homo sapiens = species: Homo sapiens; test: Selectivity ratio of Kd for DNA-tagged human partial length AURKA to Kd for DNA-tagged human partial length TrkA
[6] = target: Tyrosine-protein kinase ABL1 (Homo sapiens, UniProt P00519); test: Inhibition of DNA-tagged human nonphosphorylated partial length ABL1 expressed in mammalian expression system at 100 nM by qPCR method; settings: 0.1 µM
[7] = target: Platelet-derived growth factor receptor beta (Homo sapiens) (UniProt P09619); test: Inhibition of DNA-tagged human partial length PDGFRB expressed in mammalian expression system at 100 nM by qPCR method
[8] = target: T2, Tyrosine-protein kinase JAK3 (Homo sapiens) (UniProt P52333); test: Inhibition of DNA-tagged human partial length JAK3 JH1 domain-catalytic expressed in mammalian expression system at 100 nM by qPCR method
T2 sequence (whole entry): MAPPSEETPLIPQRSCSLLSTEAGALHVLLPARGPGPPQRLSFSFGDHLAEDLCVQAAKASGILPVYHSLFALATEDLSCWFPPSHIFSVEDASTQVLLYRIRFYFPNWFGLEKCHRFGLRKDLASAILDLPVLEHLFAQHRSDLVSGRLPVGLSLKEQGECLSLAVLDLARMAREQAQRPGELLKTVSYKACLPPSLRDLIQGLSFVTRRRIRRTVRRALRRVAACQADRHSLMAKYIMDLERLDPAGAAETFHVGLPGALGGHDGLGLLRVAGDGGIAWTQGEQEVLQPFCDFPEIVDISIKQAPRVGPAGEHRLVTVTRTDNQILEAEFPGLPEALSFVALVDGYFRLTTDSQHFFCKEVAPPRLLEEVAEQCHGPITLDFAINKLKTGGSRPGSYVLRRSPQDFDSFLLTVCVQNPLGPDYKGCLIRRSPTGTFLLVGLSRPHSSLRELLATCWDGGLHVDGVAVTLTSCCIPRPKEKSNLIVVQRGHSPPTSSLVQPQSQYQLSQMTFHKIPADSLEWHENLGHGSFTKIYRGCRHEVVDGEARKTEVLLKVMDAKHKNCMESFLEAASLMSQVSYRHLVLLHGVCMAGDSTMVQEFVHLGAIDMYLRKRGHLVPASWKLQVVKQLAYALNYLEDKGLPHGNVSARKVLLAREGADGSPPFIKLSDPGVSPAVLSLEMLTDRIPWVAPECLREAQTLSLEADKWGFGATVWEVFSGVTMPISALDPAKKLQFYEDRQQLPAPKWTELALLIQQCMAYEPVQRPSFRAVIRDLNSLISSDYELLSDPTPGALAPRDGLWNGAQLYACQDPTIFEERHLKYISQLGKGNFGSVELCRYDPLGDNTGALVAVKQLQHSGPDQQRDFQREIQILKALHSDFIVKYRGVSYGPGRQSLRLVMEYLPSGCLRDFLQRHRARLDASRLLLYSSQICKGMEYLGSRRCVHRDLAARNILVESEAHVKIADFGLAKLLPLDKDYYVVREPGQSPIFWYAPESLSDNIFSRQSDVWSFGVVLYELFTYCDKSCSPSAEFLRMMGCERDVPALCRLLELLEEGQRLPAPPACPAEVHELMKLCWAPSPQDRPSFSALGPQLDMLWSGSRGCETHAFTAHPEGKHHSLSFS

[9] = target: High affinity nerve growth factor receptor (Homo sapiens) (UniProt P04629); test: Inhibition of DNA-tagged human partial length TrkA expressed in mammalian expression system assessed as remaining activity at 100 nM by qPCR method
[10] = target: Tyrosine-protein kinase ABL1 (Homo sapiens, UniProt P00519, T315I); test: Inhibition of DNA-tagged human phosphorylated partial length ABL1 T315I mutant expressed in mammalian expression system at 100 nM by qPCR method; settings: 0.1 µM

Chain of Platelet-derived growth factor receptor beta (Homo sapiens) (P09619 whole entry, the tested form may be a part): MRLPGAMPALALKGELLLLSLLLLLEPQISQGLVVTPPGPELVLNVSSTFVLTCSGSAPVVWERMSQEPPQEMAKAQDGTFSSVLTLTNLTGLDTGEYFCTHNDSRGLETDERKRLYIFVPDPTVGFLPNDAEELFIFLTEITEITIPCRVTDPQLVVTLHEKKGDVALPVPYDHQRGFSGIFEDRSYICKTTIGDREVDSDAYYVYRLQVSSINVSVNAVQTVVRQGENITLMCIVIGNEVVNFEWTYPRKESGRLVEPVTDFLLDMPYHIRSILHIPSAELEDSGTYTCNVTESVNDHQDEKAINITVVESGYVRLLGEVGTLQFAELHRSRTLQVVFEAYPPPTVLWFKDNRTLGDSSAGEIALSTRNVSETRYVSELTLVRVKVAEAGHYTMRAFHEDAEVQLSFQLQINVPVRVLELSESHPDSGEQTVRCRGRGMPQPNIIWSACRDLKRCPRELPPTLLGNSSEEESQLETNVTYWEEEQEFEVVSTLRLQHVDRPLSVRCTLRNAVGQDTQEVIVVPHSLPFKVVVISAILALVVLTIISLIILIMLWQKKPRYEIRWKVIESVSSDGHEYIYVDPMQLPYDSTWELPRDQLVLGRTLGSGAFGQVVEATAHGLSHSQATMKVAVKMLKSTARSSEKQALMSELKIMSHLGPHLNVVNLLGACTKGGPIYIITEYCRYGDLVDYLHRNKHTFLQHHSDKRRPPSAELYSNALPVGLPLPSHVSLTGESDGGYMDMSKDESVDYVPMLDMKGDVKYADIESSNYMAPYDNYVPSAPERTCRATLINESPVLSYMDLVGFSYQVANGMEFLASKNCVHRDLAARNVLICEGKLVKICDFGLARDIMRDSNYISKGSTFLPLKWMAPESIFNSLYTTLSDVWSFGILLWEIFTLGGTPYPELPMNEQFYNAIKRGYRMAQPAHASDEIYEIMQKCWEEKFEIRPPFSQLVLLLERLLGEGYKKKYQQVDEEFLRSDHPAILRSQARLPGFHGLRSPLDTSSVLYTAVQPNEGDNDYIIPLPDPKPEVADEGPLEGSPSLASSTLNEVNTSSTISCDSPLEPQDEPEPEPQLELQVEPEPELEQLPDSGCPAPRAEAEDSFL
Chain of Proto-oncogene tyrosine-protein kinase receptor Ret (Homo sapiens) (P07949 whole entry): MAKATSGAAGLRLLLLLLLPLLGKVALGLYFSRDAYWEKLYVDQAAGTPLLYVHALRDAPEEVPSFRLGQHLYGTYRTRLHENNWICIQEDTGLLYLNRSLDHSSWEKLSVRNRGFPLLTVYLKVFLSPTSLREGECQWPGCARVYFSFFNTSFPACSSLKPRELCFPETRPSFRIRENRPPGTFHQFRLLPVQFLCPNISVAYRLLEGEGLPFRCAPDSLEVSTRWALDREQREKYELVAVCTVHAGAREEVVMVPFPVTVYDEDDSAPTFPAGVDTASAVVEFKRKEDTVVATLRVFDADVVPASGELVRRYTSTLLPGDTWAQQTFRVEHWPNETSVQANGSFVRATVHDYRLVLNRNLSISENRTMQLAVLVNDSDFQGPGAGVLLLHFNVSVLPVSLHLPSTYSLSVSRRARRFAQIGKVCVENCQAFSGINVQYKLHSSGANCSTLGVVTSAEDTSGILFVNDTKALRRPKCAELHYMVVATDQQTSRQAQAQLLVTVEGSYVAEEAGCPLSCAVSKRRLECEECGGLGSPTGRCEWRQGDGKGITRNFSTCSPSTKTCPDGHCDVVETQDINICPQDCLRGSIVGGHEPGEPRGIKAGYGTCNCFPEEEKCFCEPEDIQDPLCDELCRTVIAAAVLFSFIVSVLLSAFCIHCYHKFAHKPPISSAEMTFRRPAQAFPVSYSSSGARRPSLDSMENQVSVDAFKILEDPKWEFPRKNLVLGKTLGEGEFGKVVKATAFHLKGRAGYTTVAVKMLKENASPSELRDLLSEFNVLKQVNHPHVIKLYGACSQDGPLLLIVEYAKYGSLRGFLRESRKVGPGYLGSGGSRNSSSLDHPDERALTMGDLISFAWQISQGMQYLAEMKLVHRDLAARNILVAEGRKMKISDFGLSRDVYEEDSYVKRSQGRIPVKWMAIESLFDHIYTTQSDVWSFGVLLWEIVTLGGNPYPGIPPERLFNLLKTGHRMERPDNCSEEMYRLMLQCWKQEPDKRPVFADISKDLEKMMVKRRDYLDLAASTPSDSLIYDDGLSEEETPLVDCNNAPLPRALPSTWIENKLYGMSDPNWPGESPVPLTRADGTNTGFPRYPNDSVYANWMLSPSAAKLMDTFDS
Chain of NT-3 growth factor receptor (Homo sapiens) (Q16288 32-839 limits assumed): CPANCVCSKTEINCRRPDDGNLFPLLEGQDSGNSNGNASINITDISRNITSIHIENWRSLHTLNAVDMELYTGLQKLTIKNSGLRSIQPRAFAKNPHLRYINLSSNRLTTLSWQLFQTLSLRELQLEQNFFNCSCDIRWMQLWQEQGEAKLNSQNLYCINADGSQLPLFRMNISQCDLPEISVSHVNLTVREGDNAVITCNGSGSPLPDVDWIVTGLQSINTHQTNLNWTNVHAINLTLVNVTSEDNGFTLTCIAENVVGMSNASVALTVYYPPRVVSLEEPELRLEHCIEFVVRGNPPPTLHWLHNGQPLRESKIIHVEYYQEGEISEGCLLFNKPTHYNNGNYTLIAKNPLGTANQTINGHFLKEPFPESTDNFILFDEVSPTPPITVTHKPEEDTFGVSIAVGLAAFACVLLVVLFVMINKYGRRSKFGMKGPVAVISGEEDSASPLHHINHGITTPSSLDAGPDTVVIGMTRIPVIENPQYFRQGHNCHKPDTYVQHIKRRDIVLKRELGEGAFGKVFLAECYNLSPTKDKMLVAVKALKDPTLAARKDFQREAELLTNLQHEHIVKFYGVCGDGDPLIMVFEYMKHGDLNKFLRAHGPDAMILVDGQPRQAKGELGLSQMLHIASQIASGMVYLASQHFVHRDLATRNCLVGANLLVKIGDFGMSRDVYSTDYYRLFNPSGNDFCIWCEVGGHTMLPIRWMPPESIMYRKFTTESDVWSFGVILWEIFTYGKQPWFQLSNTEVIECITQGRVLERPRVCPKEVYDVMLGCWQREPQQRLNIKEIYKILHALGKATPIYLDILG
Chain of BDNF/NT-3 growth factors receptor (Homo sapiens) (Q16620 32-822 limits assumed): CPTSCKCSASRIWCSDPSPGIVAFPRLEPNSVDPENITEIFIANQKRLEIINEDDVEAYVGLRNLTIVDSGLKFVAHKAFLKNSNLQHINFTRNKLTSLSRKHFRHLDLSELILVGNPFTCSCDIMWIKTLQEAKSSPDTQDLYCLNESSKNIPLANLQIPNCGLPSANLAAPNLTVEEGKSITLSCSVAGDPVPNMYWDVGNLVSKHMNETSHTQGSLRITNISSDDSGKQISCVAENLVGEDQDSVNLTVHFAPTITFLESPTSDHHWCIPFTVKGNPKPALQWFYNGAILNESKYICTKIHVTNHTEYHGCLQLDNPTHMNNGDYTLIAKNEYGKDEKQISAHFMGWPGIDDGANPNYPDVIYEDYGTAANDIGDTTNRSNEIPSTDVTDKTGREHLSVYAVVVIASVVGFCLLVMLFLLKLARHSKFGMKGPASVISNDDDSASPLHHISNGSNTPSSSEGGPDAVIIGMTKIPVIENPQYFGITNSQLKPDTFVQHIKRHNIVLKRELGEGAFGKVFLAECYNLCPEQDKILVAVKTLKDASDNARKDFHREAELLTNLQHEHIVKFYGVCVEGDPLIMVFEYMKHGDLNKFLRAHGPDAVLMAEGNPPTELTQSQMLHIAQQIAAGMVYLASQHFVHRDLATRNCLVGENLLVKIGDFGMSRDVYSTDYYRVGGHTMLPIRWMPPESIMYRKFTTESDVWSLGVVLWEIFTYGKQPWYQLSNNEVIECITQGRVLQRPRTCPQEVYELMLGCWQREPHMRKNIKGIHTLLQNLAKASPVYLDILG
Chain of High affinity nerve growth factor receptor (Homo sapiens) (P04629 33-796 limits assumed): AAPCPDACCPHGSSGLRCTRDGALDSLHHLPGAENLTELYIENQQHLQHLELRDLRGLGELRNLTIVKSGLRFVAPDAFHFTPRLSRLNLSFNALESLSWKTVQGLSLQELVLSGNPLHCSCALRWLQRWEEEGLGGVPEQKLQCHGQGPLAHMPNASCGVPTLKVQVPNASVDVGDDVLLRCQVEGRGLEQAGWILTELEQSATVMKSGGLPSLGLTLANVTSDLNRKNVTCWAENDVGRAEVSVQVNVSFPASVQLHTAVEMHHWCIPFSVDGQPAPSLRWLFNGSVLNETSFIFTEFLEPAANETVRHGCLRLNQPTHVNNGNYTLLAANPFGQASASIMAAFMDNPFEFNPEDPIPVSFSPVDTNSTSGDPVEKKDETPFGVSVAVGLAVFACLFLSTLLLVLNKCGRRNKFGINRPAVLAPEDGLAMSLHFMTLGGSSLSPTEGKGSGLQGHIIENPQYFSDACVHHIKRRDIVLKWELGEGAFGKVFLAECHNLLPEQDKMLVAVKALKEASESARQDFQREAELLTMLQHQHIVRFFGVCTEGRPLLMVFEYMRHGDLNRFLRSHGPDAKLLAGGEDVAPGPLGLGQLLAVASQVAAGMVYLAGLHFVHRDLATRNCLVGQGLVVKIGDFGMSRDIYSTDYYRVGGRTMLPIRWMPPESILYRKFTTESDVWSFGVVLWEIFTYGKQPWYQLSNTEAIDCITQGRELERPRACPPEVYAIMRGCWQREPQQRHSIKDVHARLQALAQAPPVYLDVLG

inhibition [1] | inhibition [3] | inhibition [4] | inhibition [7] | Compound | also measured
Active |  |  |  | Cc1cc(Nc2cc(N3CCN(C)CC3)nc(Sc3ccc(NC(=O)C4CC4)cc3)n2)n[nH]1 | 
 |  |  |  | CN1CCN(c2cc(Nc3cc(C(C)(C)C)[nH]n3)nc(Sc3ccccc3)n2)CC1 | inhibition (INH) (Aurora kinase A): Not Active
Active | Active | Active | Active | CN1CCN(c2cc(Nc3cc(-c4cccc(F)c4)[nH]n3)nc(Sc3ccccc3)n2)CC1 | inhibition (INH) [2]: Not Active; inhibition [5]: Active; Selectivity ratio (Homo sapiens): 1000; inhibition (INH) [6]: Not Active; inhibition [8]: inactive; Activity [9]: < 1%; inhibition (INH) [10]: Not Active
 | inactive | inactive | inactive | Cc1ccc(CSc2nc(Nc3cc(C)[nH]n3)cc(N3CCN(C)CC3)n2)cc1 | 
